The text below walks through data of patent publication US20240307424A1, “COMPOSITION CAPABLE OF PROMOTING HAIR GROWTH, DRUG CAPABLE OF PROMOTING HAIR GROWTH, AND APPLICATION THEREOF” (GUANGXI XINHAI PHARMACEUTICAL TECHNOLOGY CO., LTD., priority 2022, published 2024).

The test system of data set [1] is hair removal area on the back of mice. As to the kind of experiment: Hair growth on the back of mice after hair removal (photos, hair growth speed score). The conditions noted are these: twice a day, 2 weeks; for hair growth speed (score 0-3) of the hair removal area: high dose 2 mg/mL, compared with the model group. The data set is classed as in vivo, KM mice. The source says: The experimental animals are purchased from National Institutes for Food and Drug Control with a production license No. of SCXK2017 (Jing)-0005, KM mice, male, 18-20 g. SPF grade.
Except for a normal control group, the back of all the mice in the other groups are subjected to hair removal.
The experimental animals are purchased from National Institutes for Food and Drug Control with the production license No. of SCXK2017 (Jing)-0005, KM mice, male, 18-20 g, spf grade.
Except for the normal control group, the back of all the mice in the other groups are subjected to hair removal.

Data set [2] relates to hair follicles in the skin tissue of the hair removal area on the back of mice. As to the kind of experiment: Number of hair follicles in skin tissue of the hair removal area (HE staining). The data set is classed as in vivo, KM mice. The settings on record: twice a day, 2 weeks, compared with the model group. The source says: After the mice are sacrificed, the skin tissue of the back is fixed, is embedded with paraffin to obtain a paraffin-embedded section, is subjected to HE staining, and is counted the number of hair follicles to evaluate the effect of hair growth promotion.

Data set [3] is described as follows: Weight of mice after administration for 2 weeks.
Description: Animal grouping: a blank group, a model group, a Vaseline group, a pulchinenoside B4-low dose group, a pulchinenoside B4-medium dose group, a pulchinenoside B4-high dose group, a positive drug of minoxidil liniment group, 10 mice per group, pulchinenoside B4 and minoxidil liniment in each group are dissolved with Vaseline. The mice in the Vaseline group are administered Vaseline, the low dose, and medium dose and high dose of pulchinenoside B4 are 0.5, 1, and 2 mg/mL, respectively. The mice are administered twice a day, after 2 weeks of continuous administration, the skin tissue of a hair removal area on the back of the mice in each group is taken, is fixed and is subjected to HE staining, and the number of hair follicles is counted under a microscope.
Animal grouping: a blank group, a model group, a Vaseline group, a pulchinenoside B5-low dose group, a pulchinenoside B5-medium dose group, a pulchinenoside B5-high dose group, a positive drug of minoxidil liniment group, 10 mice per group, pulchinenoside B5 and minoxidil liniment in each group are dissolved with Vaseline. […] The mice are administered twice a day, after 2 weeks of continuous administration, the skin tissue of a hair removal area on the back of the mice in each group is obtained, is fixed and is subjected to HE staining, and the number of hair follicles is counted under a microscope.
Where [4] appears, read: medium dose 1 mg/mL in Vaseline.

As for `C=C(C)[C@@H]1CCC2(C(=O)OC3OC(COC4O[C@H](CO)C(O[C@@H]5O[C@@H](C)[C@H](O)[C@@H](O)[C@H]5O)[C@H](O)[C@H]4O)[C@@H](O)[C@H](O)[C@H]3O)CC[C@]3(C)[C@H](CC[C@@H]4[C@@]5(C)CC[C@H](O[C@@H]6OC[C@H](O)[C@H](O)[C@H]6O[C@@H]6O[C@@H](C)[C@H](O)[C@@H](O)[C@H]6O)[C@@](C)(CO)C5CC[C@]43C)[C@@H]12` (stereo partly drawn) [pulchinenoside B4], the “hair growth in the hair removal area on the back of mice (photos)” value in data set [1] (high dose 2 mg/mL in Vaseline), in data set [1] (low dose 0.5 mg/mL in Vaseline) and in data set [1] (setting [4]) was “can promote hair growth” in each case. For the same compound, in data set [1], the “hair growth speed (score 0-3) of the hair removal area” value was “significantly increased”. Moreover, the “number of hair follicles in the skin tissue of the hair removal area” value in data set [2] (high dose 2 mg/mL), in data set [2] (low dose 0.5 mg/mL) and in data set [2] (medium dose 1 mg/mL) was “significantly increase” throughout.

As for `C[C@@H]1O[C@@H](OC2[C@@H](CO)OC(OCC3OC(OC(=O)C45CCC(C)(C)C[C@@H]4[C@H]4CC[C@@H]6[C@@]7(C)CC[C@H](O[C@@H]8OC[C@H](O)[C@H](O)[C@H]8O[C@@H]8O[C@@H](C)[C@H](O)[C@@H](O)[C@H]8O)C(C)(CO)[C@@H]7CC[C@@]6(C)[C@]4(C)CC5)[C@H](O)[C@@H](O)[C@@H]3O)[C@H](O)[C@H]2O)[C@H](O)[C@H](O)[C@H]1O` (stereo partly drawn) [pulchinenoside B5], the “hair growth in the hair removal area on the back of mice (photos)” value in data set [1] (high dose 2 mg/mL in Vaseline), in data set [1] (low dose 0.5 mg/mL in Vaseline) and in data set [1] (setting [4]) was “can promote hair growth” in each case. Also, in data set [1], the “hair growth speed (score 0-3) of the hair removal area” value is “significantly increased”. For the same compound, the “number of hair follicles in the skin tissue of the hair removal area” value in data set [2] (high dose 2 mg/mL), in data set [2] (low dose 0.5 mg/mL) and in data set [2] (medium dose 1 mg/mL) was “significantly increase” in each case. For the same compound, the “effect on the weight of mice” value in data set [3] was “no significant effect”.
